From article PMC12650519, “The Identification of a Sub-Micromolar Peptide-Based Protein Arginine Methyltransferase 1 (PRMT1) Inhibitor from a Plate-Based Screening Assay” (Biomolecules, 2025)
Read-outs that look alike come from different tables or passages of the source. Starred links: 1 amine or outer side, 2 acyl side, 3 side chain; linkers in the order of their positions; H or OH if unused. Non-standard residues stand in square brackets, D forms with d. Residues, ends and D or L forms follow the SMILES beside them. X1 = N=C(CCl)NCCC[C@H](N[*:1])C(=O)[*:2]

Assays:
PRMT1 [1] = molecular target: T1, PRMT1 (Homo sapiens, UniProt Q99873); assay: MTase-Glo Methyltransferase Assay, kinetic parameters of peptide substrates; assay type: biochemical; conditions: Tris pH 8.0; for kcat / Km: MTase-Glo luminescence, peptide 0–1000 µM, 4 µL of 200 nM PRMT1, 10 min at 37 °C, SAH standards, fit with GraFit; for kcat/Km: from kcat and Km, MTase-Glo assay, 37 °C
T1 construct: made in house
Experimental: To determine the kinetic parameters, kcat, Km and kcat/Km for each of the validation or hit peptides, a MTase-Glo™ Methyltransferase Assay from the Promega Corporation was utilized to monitor the enzymatic reaction.
Varying concentrations (0–1000 µM) of the peptide in assay buffer (4 mM DTT, 0.4 mg/mL BSA, 4 mM EDTA, 12 mM MgCl2, 200 mM NaCl and 80 mM Tris Buffer-pH 8.0) were incubated at 37 °C for 10 min. Then 4 µL of 200 nM PRMT1 was added to this reaction mixture and continued for another 10 min at 37 °C. Of note the enzymatic activity was linear with respect to time and enzyme concentration under these conditions. The reaction was quenched by the addition of 2 µL 0.5% TFA and placed at room temperature before adding 2.2 µL of the 6× MTase-Glo Reagent. After 30 min, 13.2 µL of the MTase-Glo Detection Solution was added and incubated for an additional 30 min before the luminescence was read using a BioTek Synergy 2 Multi-Mode Microplate Reader (Agilent Technologies, Santa Clara, CA). Luminescence signal was converted to product concentration using SAH standards (0–5 μM) and the initial rates were fit to Equation (1):[…](1) using GraFit version 7.03.

PRMT1 [2] = assay: Plate-based on-bead substrate screening assay (ADMA antibody / alkaline phosphatase / BCIP); assay type: biochemical; conditions: 20 beads/well; 500 nM PRMT1, 400 µM SAM, 37 °C, HEPES pH 8.0; hit = at least 10 blue beads per well
Experimental: The beads from the filter plate were transferred to an Acrowell 96 Filter screening plate (Cat#5020; Pall Corporation; Port Washington, NY) and rinsed with 0.20 mL DI water, followed by 0.20 mL of TBST 10 times. The beads were swelled with 0.25 mL TBST overnight with gentle rocking at 4 °C. The plate was rinsed with 0.25 mL of Assay Buffer #1 (50 mM HEPES pH 8.0, 50 mM NaCl, 1 mM EDTA). After draining, the plate was incubated with 500 nM PRMT1 in 0.1 mL of Assay Buffer #2 (50 mM HEPES pH 8.0, 50 mM NaCl, 1 mM EDTA, 0.5 mM DTT, 400 µM SAM) for 90 min at 37 °C while rocked gently at 120 rpm. The plate was rinsed with TBST (5 × 0.20 mL) then rocked gently in 100 µL of 0.1% SDS for 15 min at room temperature, before being washed with DI water (10 × 0.20 mL) and TBST (10 × 0.20 mL).
Beads were blocked with 125 µL of 1.5% (w/v) BSA in TBST for 1 h at room temperature with gentle rocking. The beads were rinsed with TBST (5 × 0.20 mL), then incubated overnight at 4 °C with 0.065 mL total volume of TBST + 1.5% (w/v) BSA + 1:500 Ab412 antibody (purchased from Abcam; Cambridge, UK) with gentle rocking.
The plate was then rinsed with 0.20 mL of TBS for 10 min and 0.20 mL TBST for another 10 min. The plate was incubated with gentle rocking for 60 min at room temperature with 0.065 mL total volume of TBST + 1.5% (w/v) BSA + 1:4000 Ab98690 antibody (secondary antibody: purchased from Abcam; Cambridge, UK). This mixture was rinsed with TBS (10 × 0.20 mL), then 0.2 mL TBST for 10 min. The plate was then incubated with 2.5 mg/mL 5-Bromo-4-chloro-3-indolyl phosphate (BCIP: a substrate that detects alkaline phosphatase emitting a blue hue when conjugated with secondary antibodies) dissolved in BCIP buffer (5.85 g NaCl, 12.1 g Tris-base, 0.476 g MgCl2 in 1 L of DI water, pH 9.0) at room temperature for 1 h with gentle rocking. The reaction was quenched with 0.1 M HCl.
Previously, we reported on this novel plate-based screening assay of the PRMT family of enzymes and identified a PRMT1 peptide substrate with kcat/Km of 8.1 × 10^4 M^−1 min^−1, which validated this screening methodology. In the current work, we utilized this method to screen a second-generation peptide library against PRMT1, which incorporated amino acids with diverse charge, size, and PTMs around the substrate arginine. Beads functionalized with peptide library members were washed extensively with buffers and subsequently incubated with PRMT1 for 60 min. The methylation reaction was then quenched with sodium dodecyl sulfate to denature PRMT1 and halt the enzymatic reaction. The peptide beads that contained ADMA as a result of PRMT1 action were identified using a 1° antibody that binds only to ADMA. […] The beads were then incubated with a 2° antibody conjugated to alkaline phosphatase. […]

PRMT1 [3] = molecular target: T1, PRMT1; assay: MTase-Glo assay, inhibition by chloroacetamidine warhead peptide; assay type: biochemical; conditions: inhibitor 0–250 µM, 4 µL of 400 nM PRMT1, 15 min pre-incubation at 37 °C, substrate AcH4-21 (1 µL of 225 µM), Tris pH 8.0
Experimental: The MTase-Glo assay was also used to determine the inhibition parameters of the chloroacetamidine warhead peptide. For this assay, various concentrations of the chloroacetamidine warhead peptide (0–250 µM) were added to reaction buffer (80 mM Tris Buffer [pH 8.0], […], 4 mM EDTA, 12 mM MgCl2, 0.4 mg/mL BSA and 4 mM DTT) and incubated for 10 min at 37 °C. Following this incubation, 4 µL of 400 nM PRMT1 was added to the inhibition reaction mix and continued to be incubated at 37 °C for 15 min. The substrate peptide, 1 uL of 225 µM AcH4-21, was added to each reaction for 15 min. To quench the reaction, each sample received 2 µL of 0.5% TFA solution and placed at room temperature before 2.2 µL of the 6× MTase-Glo reagent was added to each sample for 30 min. Then 13.2 µL of the MTase-Glo Detection solution was added and incubated for an additional 30 min. The luminescence signal was read using a BioTek Synergy 2 Multi-Mode Microplate Reader and the % activity was calculated using an SAH standard curve (0–5 µM) before being fit to Equation (2):(2) Fractional Activity of PRMT=1/1+ 1/IC50 using GraFit version 7.03.

PRMT1 [4] = molecular target: T1, PRMT1; conditions: cited from earlier work
Experimental: Table 3 List of Validation Peptide Sequences along with the Kinetic Parameters. | column: kcat (min^−1); Km (µM); kcat/Km (M^−1 min^−1) || Design and Synthesis of the Peptide Library. Histone peptides are well-documented substrates of PRMT1 and thus provide a good model for the design of a screening library to search for better PRMT1 peptide substrates. […] Given that our study is focused on identifying peptide substrates with improved kinetic parameters, we chose to use a library based on the H4-16 template. Our previous work highlighted that flexibility was permitted within the ... || Rather than testing all individual hit peptide sequences, and to help identify the specific elements that are important for PRMT1 substrate binding, we collected and synthesized a series of consensus-based sequences from the list of hit peptides.

[5] = reference histone peptide substrate in Table 3, same kcat/Km as quoted

T1 sequence (Q99873 1-353 isoform Q99873-3): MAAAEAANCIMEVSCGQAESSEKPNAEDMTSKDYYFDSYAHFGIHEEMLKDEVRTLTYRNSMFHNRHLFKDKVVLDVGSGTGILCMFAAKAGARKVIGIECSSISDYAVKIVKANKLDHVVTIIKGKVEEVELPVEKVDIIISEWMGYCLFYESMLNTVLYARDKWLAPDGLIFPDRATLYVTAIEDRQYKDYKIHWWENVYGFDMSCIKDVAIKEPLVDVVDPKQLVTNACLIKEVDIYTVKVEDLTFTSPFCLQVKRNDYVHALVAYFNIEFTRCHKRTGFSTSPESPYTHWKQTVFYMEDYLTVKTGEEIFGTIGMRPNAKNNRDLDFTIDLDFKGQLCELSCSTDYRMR

Molecule	kcat (PRMT1 [1])	Km (PRMT1 [1]; read-out: Km) [µM]	kcat/Km (PRMT1 [1]) [M⁻¹ s⁻¹]	hit / non-hit as PRMT1 substrate in the plate-based screen (PRMT1 [2])	also measured
VKVCXRGGKGLGKGGAK [Well D5 Peptide, “hit” library peptide VKVCX…, X = acetylated lysine]	0.0318 ± 0.00188 s⁻¹	6.78 ± 1.77	4700	hit	kcat (PRMT1 [1]; listed as Well D5): 0.03187 ± 0.00188 s⁻¹; kcat/Km (PRMT1 [1]; listed as Well D5): 4702 M⁻¹ s⁻¹
CC(=O)NCCCC[C@H](N)C(=O)N[C@@H](CCCCN)C(=O)N[C@@H](CS)C(=O)N[C@@H](CCCCN)C(=O)N[C@@H](C)C(=O)N[C@@H](CCCNC(=N)CCl)C(=O)NCC(=O)NCC(=O)N[C@@H](CCCCN)C(=O)NCC(=O)N[C@@H](CC(C)C)C(=O)NCC(=O)N[C@@H](CCCCN)C(=O)NCC(=O)NCC(=O)N[C@@H](C)C(=O)N[C@@H](CCCCN)C(N)=O [VALPep1 Warhead Peptide] (H-K(Ac)KCKA[X1]GGKGLGKGGAK-NH2)					IC50 (PRMT1 [3]): 3.47 ± 0.46 µM
WWXXWRGGKGLGKGGAK [Well B10 Peptide, “non-hit” library peptide WWXX…, X = acetylated lysine]	not detectable			non-hit	Km (PRMT1 [1]): not detectable
SGRGKGGKGLGKGGAK [AcH4-16, Histone H4-16 peptide, a mediocre substrate of PRMT1, template of the library]					Km (PRMT1 [4]; [5]): 170 ± 25 µM; kcat (PRMT1 [4]; [5]): 0.00533 ± 1.7e-05 s⁻¹; kcat/Km (PRMT1 [4]; reference histone peptide substrate): 31.7 M⁻¹ s⁻¹
XKCKARGGKGLGKGGAK [VALPep1]	0.041 ± 0.00133 s⁻¹	8.72 ± 1.2	4700		
VXWAWRGGKGLGKGGAK [Well E9 Peptide, “non-hit” library peptide VX…, X = acetylated lysine]	not detectable			non-hit	Km (PRMT1 [1]): not detectable
XKKVVRGGKGLGKGGAK [VALPep4]	0.0268 ± 0.00173 s⁻¹	7.42 ± 2.02	3600		
XKCVVRGGKGLGKGGAK [VALPep3]	0.0154 ± 0.0006 s⁻¹	6.92 ± 1.16	2230		
H4-21 peptide: one of the best-known PRMT1 peptide substrates					kcat/Km (PRMT1 [4]; known PRMT1 peptide substrate Histone H4-21, literature value, no reference printed): 4670 M⁻¹ s⁻¹; kcat/Km (PRMT1 [4]; known PRMT1 peptide substrate Histone H4-21, literature value, no reference printed, listed as Histone H4-21): 4670 M⁻¹ s⁻¹
XCCVARGGKGLGKGGAK [Well G2 Peptide, “hit” library peptide X…, X = acetylated lysine]	0.0164 ± 6.7e-05 s⁻¹	25.4 ± 3.95	648	hit	
XKKKARGGKGLGKGGAK [VALPep2]	0.043 ± 0.0029 s⁻¹	7.82 ± 2.23	5480		
